Measured values: the supplement of paper PMC10627819

Key:
[1] = system: S. aureus DSM 20231; test: Bliss interaction score (quartile over a dose matrix) (fitness difference); higher = more antagonism (negative = synergy)
Method in brief: (§1)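 Fitness was derived from optical density at entry into stationary phase, divided by the robust mean of the no-drug wells on the same plate. That reading was taken as OD595, and the ratio was capped at 1. Single-drug fitness was inferred from the combination data. The Bliss score, observed fitness minus the expected product of single-drug fitness, was summarised as quartiles over technical, biological and donor/recipient replicates.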

[2] = system: B. subtilis 168; test: as above
Method in brief: as §1

[3] = system: S. aureus Newman; test: as above
Method in brief: as §1

[4] = system: S. pneumoniae D39V; test: as above
Method in brief: as §1

[5] = system: S. aureus DSM 20231; test: fitness (endpoint OD595 vs no drug) (fraction); higher = more growth
Method in brief: (§2)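 Bacterial growth was followed in 384-well plates seeded at OD595 0.01, with 30 µl per well, or 55 µl for S. pneumoniae, in TSB, LB Lennox or CY at 37 °C. OD595 was read every 30 min for 14 h, and each reading had the first reading subtracted as background. Fitness is the background-corrected optical density at entry into stationary phase divided by the robust mean of the no-drug control wells. This ratio is capped at 1.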

[6] = system: B. subtilis 168; test: as above
Method in brief: as §2

[7] = system: S. aureus Newman; test: as above
Method in brief: as §2

[8] = system: S. pneumoniae D39V; test: as above
Method in brief: as §2
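Throughout, for Bliss interaction score (quartile over a dose matrix): first quartile when negative (synergy) and third quartile when positive (antagonism).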

COc1cccc2c1C(=O)c1c(O)c3c(c(O)c1C2=O)C[C@@](O)(C(=O)CO)C[C@@H]3O[C@H]1C[C@H](N)[C@H](O)[C@H](C)O1 [Doxorubicin] + Cc1cc(NS(=O)(=O)c2ccc(N)cc2)no1 [Sulfamethoxazol]
Conditions	Bliss interaction score
[1]	-0.0832
[2]	0.0735
[3]	-0.0666
[4]	0.0685

fitness
Conditions	first compound 0.25 µg/mL	first compound 0.5 µg/mL	first compound 0.625 µg/mL	first compound 1 µg/mL	first compound 1.25 µg/mL	first compound 2.5 µg/mL
[5], partner 1 µg/mL	–	–	0.831	–	0.791	0.737
[5], partner 2 µg/mL	–	–	0.83	–	0.911	0.869
[5], partner 4 µg/mL	–	–	0.812	–	0.874	0.845
[6], partner 1 µg/mL	–	–	0.929	–	0.885	0.723
[6], partner 2 µg/mL	–	–	0.878	–	0.865	0.665
[6], partner 4 µg/mL	–	–	≥ 1	–	0.893	0.695
[7], partner 1 µg/mL	–	–	0.852	–	0.816	0.758
[7], partner 2 µg/mL	–	–	0.856	–	0.802	0.765
[7], partner 4 µg/mL	–	–	0.854	–	0.835	0.787
[8], partner 1 µg/mL	0.943	0.93	–	0.904	–	–
[8], partner 2 µg/mL	0.949	0.97	–	0.936	–	–
[8], partner 4 µg/mL	0.965	0.954	–	0.92	–	–

fitness, one replicate
Conditions	first compound 0.625 µg/mL	first compound 1.25 µg/mL	first compound 2.5 µg/mL
[6], partner 0.5 µg/mL	0.938	0.883	0.969
[7], partner 8 µg/mL	0.887	0.877	0.875
